Patent publication US11590102B2, “Anti-methanogenic lovastatin analogs or derivatives and uses thereof” (CEDARS-SINAI MEDICAL CENTER, priority 2015, dated 2023)

system: methane production in human stool; assay: Methane production in human stool homogenates of IBS-C patients (head gas analysed by gas chromatography); assay type: cell-based; conditions: stool homogenates of methane-producing human IBS-C patients, anaerobic chamber; 0.5, 1, 5 and 10 mg of statin per g of stool; head gas at baseline, 90 minute intervals for 3 hours and overnight (~720 min); FIG. 4
Experimental: Fresh stool samples were provided by two methane-producing human IBS-C patients (breath methane>10 ppm) who had provided an informed consent. Different concentrations of stool from each patient were homogenized in deoxygenated PBS (3 ml PBS/2 g stool) inside an anaerobic incubation chamber. Plead gas was extracted through a stopcock at various timepoints ([…], and following overnight incubation) and methane levels in the head gas at each timepoint were analyzed by gas chromatography using a Quintron SC gas chromatograph (Quintron Instrument Company, Milwaukee, Wis.).
The effects of lovastatin lactone, lovastatin ß-hydroxyacid and lovastatin diol on methane production were evaluated by incubating various concentrations of these molecules (0 mg, 0.5 mg, 1 mg, 5 mg and 10 mg of statin per g of human stool) with human stool homogenates in an anaerobic chamber as described above. Plead gas samples were drawn from each flask for methane analysis at baseline and at 90 minute intervals for 3 hours, followed by a final sample after overnight incubation (˜720 min).

Q: For `CC[C@H](C)C(=O)O[C@H]1C[C@@H](C)C=C2C=C[C@H](C)[C@H](CC[C@@H]3C[C@@H](O)CC(=O)O3)[C@H]21` [Lovastatin lactone, lovastatin lactone], which “inhibition of methane production in human stool” value (from here on “inhibition of methane production”) is on record?
A: The value was “effective inhibitors of methane production”.

Q: `CC[C@H](C)C(=O)O[C@H]1C[C@@H](C)C=C2C=C[C@H](C)[C@H](CC[C@@H](O)C[C@@H](O)CC(=O)O)[C@H]21` [lovastatin R-hydroxyacid, lovastatin ß-hydroxyacid] was tested. Which “inhibition of methane production” value did it give?
A: The value was “ineffective as an inhibitor of methane production”.

Q: How did the “inhibition of methane production” value turn out when `C[C@H]1C=C2C=C[C@H](C)[C@H](CCC3C[C@@H](O)CC(=O)O3)[C@H]2[C@@H](O)C1` (stereo partly drawn) [lovastatin diol lactone] was run?
A: Its value is “effective inhibitors of methane production”.
